The values below come from PubChem BioAssay AID256 (DTP/NCI, 2004).

Structures are written as SMILES. Where “and” joins values, the source holds several entries; their conditions need not be identical. Equal entries are not always repeated. Toxic doses and inconclusive results are not listed. Residues, ends and D or L forms follow the SMILES beside them. *: point of attachment. Cbz = O=C(OCc1ccccc1)*

The assay has as its system CD2F1 mice, L1210 leukemia ip, survival T/C. The experiment in a line: NCI In Vivo Anticancer Drug Screen. Data for tumor model L1210 Leukemia (intraperitoneal) in CD2F1 (CDF1) mice. Conditions: higher = longer survival. In short, it runs like this: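 Each value reflects a quotient of treated over vehicle control outcomes in mice with a transplanted tumor.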
Where [1] appears, read: endpoint: mean survival time, dose: 100.0 mg/kg/injection, schedule: Q04DX003 (ip), vehicle: saline with Tween-80.
The mark [2] stands for this setting: endpoint: mean survival time, dose: 200.0 mg/kg/injection, schedule: Q04DX003 (ip), vehicle: saline with Tween-80.
[3] abbreviates: endpoint: mean survival time, dose: 100.0 mg/kg/injection, schedule: Q01DX009 (ip), vehicle: saline with Tween-80.
[4] abbreviates: endpoint: mean survival time, dose: 200.0 mg/kg/injection, schedule: Q01DX009 (ip), vehicle: saline with Tween-80.
[5] abbreviates: endpoint: mean survival time, dose: 400.0 mg/kg/injection, schedule: Q01DX009 (ip), vehicle: saline with Tween-80.
Where [6] appears, read: endpoint: mean survival time, dose: 25.0 mg/kg/injection, schedule: Q01DX009 (ip), vehicle: saline with Tween-80.
[7] abbreviates: endpoint: mean survival time, dose: 50.0 mg/kg/injection, schedule: Q01DX009 (ip), vehicle: saline with Tween-80.
Where [8] appears, read: endpoint: mean survival time, dose: 6.25 mg/kg/injection, schedule: Q01DX009 (ip), vehicle: saline with Tween-80.
[9] abbreviates: endpoint: mean survival time, dose: 6.25 mg/kg/injection, schedule: Q04DX003 (ip), vehicle: saline with Tween-80.
Where [10] appears, read: endpoint: mean survival time, dose: 12.5 mg/kg/injection, schedule: Q01DX009 (ip), vehicle: saline with Tween-80.
Where [11] appears, read: endpoint: mean survival time, dose: 12.5 mg/kg/injection, schedule: Q04DX003 (ip), vehicle: saline with Tween-80.
Where [12] appears, read: endpoint: mean survival time, dose: 25.0 mg/kg/injection, schedule: Q04DX003 (ip), vehicle: saline with Tween-80.
The mark [13] stands for this setting: endpoint: mean survival time, dose: 100.0 mg/kg/injection, schedule: Q01DX001 (ip), vehicle: saline with Tween-80.
[14] abbreviates: endpoint: mean survival time, dose: 200.0 mg/kg/injection, schedule: Q01DX001 (ip), vehicle: saline with Tween-80.
Where [15] appears, read: endpoint: mean survival time, dose: 400.0 mg/kg/injection, schedule: Q01DX001 (ip), vehicle: saline with Tween-80.

With `C=C(CC(=O)O)C(=O)O`, the T/C under setting [1] is 93 % of control and the T/C under setting [2] was 98 % of control.
For the compound `O=S(=O)(O)O.[Fe]`, the T/C (endpoint: mean survival time, dose: 50.0 mg/kg/injection, schedule: Q01DX009 (ip), vehicle: saline sonified) is 86 % of control; the T/C under setting [1] was 96 % of control; the T/C under setting [2] was 88 % of control.
As for `CCN(CC)CCCC(C)Nc1ccnc2cc(Cl)ccc12` (stereo not given), the T/C (endpoint: mean survival time, dose: 100.0 mg/kg/injection, schedule: Q04DX002 (ip), vehicle: saline) is 91 % of control.
Turning to `O=[N+]([O-])c1ccccc1NC(Nc1ccccc1[N+](=O)[O-])C(Cl)(Cl)Cl`, the T/C runs as follows: under setting [3], 98 % of control; under setting [4], 101 % of control; under setting [5], 101 % of control.
With `C1=C(c2ccccc2)CC(/C=C/c2ccccc2)(c2ccccc2)C1c1ccccc1` (stereo not given), the T/C is 92 % of control under setting [6], 98 % of control under setting [7] and 90 % of control under setting [3].
Take `CNc1nc2cc(C)c(C)cc2n1C1OC(CO)C(O)C1O` (stereo not given): the T/C is 111 % of control (endpoint: mean survival time, dose: 75.0 mg/kg/injection, schedule: Q01DX001 (ip), vehicle: saline); 103 % of control (endpoint: mean survival time, dose: 150.0 mg/kg/injection, schedule: Q01DX001 (ip), vehicle: saline); 108 % of control (endpoint: mean survival time, dose: 300.0 mg/kg/injection, schedule: Q01DX001 (ip), vehicle: saline).
For `CCC1(OC(=O)CN)C(=O)OCc2c1cc1n(c2=O)Cc2cc3ccccc3nc2-1` (stereo not given), the T/C was 117 % of control and 122 % of control (endpoint: median survival time, dose: 7.5 mg/kg/injection, schedule: Q04DX002 (ip), vehicle: saline); 175 % of control (endpoint: median survival time, dose: 7.5 mg/kg/injection, schedule: Q04HX004 (iv), vehicle: dextrose); 186 % of control (endpoint: median survival time, dose: 7.5 mg/kg/injection, schedule: Q04HX004 (iv), vehicle: other); 172 % of control (endpoint: median survival time, dose: 15.0 mg/kg/injection, schedule: Q04HX004 (iv), vehicle: dextrose); 204 % of control (endpoint: median survival time, dose: 15.0 mg/kg/injection, schedule: Q04HX004 (iv), vehicle: other); 191 % of control and 213 % of control (endpoint: median survival time, dose: 30.0 mg/kg/injection, schedule: Q04DX002 (ip), vehicle: saline). In addition, the T/C is 226 % of control (endpoint: median survival time, dose: 30.0 mg/kg/injection, schedule: Q04HX004 (iv), vehicle: dextrose); 219 % of control (endpoint: median survival time, dose: 30.0 mg/kg/injection, schedule: Q04HX004 (iv), vehicle: other); 217 % of control (endpoint: median survival time, dose: 40.0 mg/kg/injection, schedule: Q04HX004 (iv), vehicle: other).
Regarding `CCCC1CC[N-]CC1.CCCC1CC[N-]CC1.CCCC1CC[N-]CC1.CCCC1CC[N-]CC1.CS(C)=O.CS(C)=O.[Cl-].[Cl-].[Cl-].[Cl-].[Cl][Rh][Cl].[Rh+3]`, the T/C by setting is: (endpoint: mean survival time, dose: 6.25 mg/kg/injection, schedule: Q01DX009 (ip), vehicle: water) 98 % of control; (endpoint: mean survival time, dose: 12.5 mg/kg/injection, schedule: Q01DX009 (ip), vehicle: water) 112 % of control; (endpoint: mean survival time, dose: 25.0 mg/kg/injection, schedule: Q04DX003 (ip), vehicle: water) 120 % of control.
For the compound `Cc1cc(N=CN(C)C)c2ccccc2n1`, the T/C is, setting by setting: (endpoint: mean survival time, dose: 3.12 mg/kg/injection, schedule: Q01DX009 (ip), vehicle: other) 106 % of control; (endpoint: mean survival time, dose: 6.25 mg/kg/injection, schedule: Q01DX009 (ip), vehicle: other) 100 % of control; (endpoint: mean survival time, dose: 12.5 mg/kg/injection, schedule: Q01DX009 (ip), vehicle: other) 100 % of control; (endpoint: mean survival time, dose: 25.0 mg/kg/injection, schedule: Q01DX009 (ip), vehicle: other) 106 % of control and 107 % of control.
`CN(C)c1nc(Cl)cc2c1ncn2C1OC(CO)C(O)C1O` (stereo not given): the T/C (endpoint: mean survival time, dose: 100.0 mg/kg/injection, schedule: Q01DX005 (ip), vehicle: saline) is 117 % of control.
As for `c1ccc2c(c1)[nH]c1c3[n+](ccc12)CCCC3`, the T/C (endpoint: mean survival time, dose: 100.0 mg/kg/injection, schedule: Q01DX001 (ip), vehicle: saline) is 119 % of control.
Take `Cc1cn(C2CC(O)C(CO)O2)c(=O)nc1NCCc1c[nH]c2ccccc12` (stereo not given): the T/C reads like this: (endpoint: median survival time, dose: 12.5 mg/kg/injection, schedule: Q01DX005 (ip), vehicle: distilled water + Tween-80) 103 % of control; (endpoint: median survival time, dose: 25.0 mg/kg/injection, schedule: Q01DX005 (ip), vehicle: distilled water + Tween-80) 103 % of control; (endpoint: median survival time, dose: 50.0 mg/kg/injection, schedule: Q01DX005 (ip), vehicle: distilled water + Tween-80) 102 % of control; (endpoint: median survival time, dose: 100.0 mg/kg/injection, schedule: Q01DX005 (ip), vehicle: distilled water + Tween-80) 103 % of control; (endpoint: median survival time, dose: 200.0 mg/kg/injection, schedule: Q01DX005 (ip), vehicle: distilled water + Tween-80) 102 % of control.
As for `COc1ccc(OC)cc1`, the T/C runs as follows: (endpoint: mean survival time, dose: 100.0 mg/kg/injection, schedule: Q01DX001 (ip), vehicle: other) 103 % of control; (endpoint: mean survival time, dose: 200.0 mg/kg/injection, schedule: Q01DX001 (ip), vehicle: other) 94 % of control; (endpoint: mean survival time, dose: 400.0 mg/kg/injection, schedule: Q01DX001 (ip), vehicle: other) 101 % of control.
Consider `CS(C)=O.CS(C)=O.[Cl][Rh]([Cl])([Cl])[Cl]`, for which the T/C is, setting by setting: (endpoint: mean survival time, dose: 12.5 mg/kg/injection, schedule: Q01DX009 (ip), vehicle: saline) 111 % of control; (endpoint: mean survival time, dose: 12.5 mg/kg/injection, schedule: Q04DX003 (ip), vehicle: saline) 100 % of control; (endpoint: mean survival time, dose: 25.0 mg/kg/injection, schedule: Q01DX009 (ip), vehicle: saline) 117 % of control; (endpoint: mean survival time, dose: 25.0 mg/kg/injection, schedule: Q04DX003 (ip), vehicle: saline) 98 % of control; (endpoint: mean survival time, dose: 50.0 mg/kg/injection, schedule: Q01DX009 (ip), vehicle: saline) 119 % of control; (endpoint: mean survival time, dose: 50.0 mg/kg/injection, schedule: Q04DX003 (ip), vehicle: saline) 100 % of control. For the same compound, for the setting “endpoint: mean survival time, dose: 100.0 mg/kg/injection, schedule: Q04DX003 (ip), vehicle: saline”, the T/C is 117 % of control.
With `CCCCCCCCCCCCCCCC(=O)N(C/C=C/CN(CCCN(C)C)C(=O)CCCCCCCCCCCCCCC)CCCN(C)C`, the T/C runs as follows: under setting [8], 92 % of control; under setting [9], 95 % of control; under setting [10], 93 % of control; under setting [11], 93 % of control; under setting [6], 94 % of control; under setting [12], 98 % of control.
For `CCCCCC(C[N+](C)(C)C)C(=O)/C=C/c1ccc(Cl)cc1` (stereo not given), the T/C was 96 % of control (endpoint: mean survival time, dose: 12.0 mg/kg/injection, schedule: Q01DX009 (ip), vehicle: Klucel (hydroxypropylcellulose) (HPC)); 96 % of control (endpoint: mean survival time, dose: 25.0 mg/kg/injection, schedule: Q01DX009 (ip), vehicle: Klucel (hydroxypropylcellulose) (HPC)); 96 % of control (endpoint: mean survival time, dose: 50.0 mg/kg/injection, schedule: Q01DX009 (ip), vehicle: Klucel (hydroxypropylcellulose) (HPC)).
Regarding `NC(=O)CNC(=O)CNC(=O)CNC(=O)OCc1ccccc1` (Cbz-Gly-Gly-Gly-NH2), the T/C was 105 % of control under setting [10], 102 % of control under setting [6] and 95 % of control under setting [7].
On to `Cc1cc(N(CCCOS(C)(=O)=O)CCCOS(C)(=O)=O)ccc1C=Nc1ccc(-c2csc(COc3ccccc3)n2)cc1`, for which the T/C is 89 % of control under setting [13]; 90 % of control under setting [3]; 91 % of control under setting [14]; 86 % of control under setting [4]; 88 % of control under setting [15].
Turning to `N#C/C(=C\c1cc(Cl)cc(Cl)c1O)C(/C(C#N)=C/c1cc(Cl)cc(Cl)c1O)c1ccc2c(c1)OCO2` (stereo not given), the T/C reads like this: under setting [3], 101 % of control; under setting [1], 101 % of control; under setting [4], 94 % of control; under setting [2], 97 % of control; under setting [5], 105 % of control; (endpoint: mean survival time, dose: 400.0 mg/kg/injection, schedule: Q04DX003 (ip), vehicle: saline with Tween-80) 103 % of control.
Take `Nc1ccc2c(c1)C(=O)c1ccc(N)cc1C2=O`: the T/C reads like this: under setting [13], 88 % of control; under setting [14], 96 % of control; under setting [15], 88 % of control.
In the case of `CN1CC2(c3ccccc3)CN(C)CC(c3ccccc3)(C1)C2=O`, the T/C reads like this: under setting [8], 98 % of control; under setting [9], 98 % of control; under setting [10], 95 % of control; under setting [11], 98 % of control; under setting [6], 103 % of control; under setting [12], 92 % of control.
